Data taken from patent US20130039856A1, “Products and Methods” (priority 2010, published 2013).

Assays:
humans aged 60 to 81 = conditions: cited from earlier work
C. elegans [1] = assay: C. elegans lifespan analysis on E. coli plates; type: in vivo, Caenorhabditis elegans; conditions: for effect of media supplementation on C. elegans lifespan on aroD mutant bacteria: supplement 40 μg/ml (PABA 0.29 mM), glp-4(bn1), 25° C.; for increase in C. elegans lifespan: vs control; for effect of supplementation on extended lifespan of C. elegans on ubiG mutant bacteria: Q-deficient ubiG bacteria; for effect of supplementation on extended lifespan of C. elegans on ubiG mutant bacteria / effect of supplementation on lifespan of C. elegans on control HT115(DE3) strain: test for toxic effect of supplement; for effect of supplementation on lifespan of C. elegans on control HT115(DE3) strain: control bacteria
Protocol: Nematode growth media was prepared as described using 2.5 g/l soy peptone (Sigma P6713). Where indicated plates were supplemented with shikimic acid (40 μg/ml), I-phenylalanine, I-tryptophan and I-tyrosine (all at 40 μg/ml), 4-amino benzoic acid (PABA 40 μg/ml=0.29 mM), sodium folate (0.29 mM and 0.58 mM folic acid dissolved in NaOH). For the kanamycin treatment of bacteria, 80 μl of 10 mM kanamycin was added after 24 hours of bacterial growth as described. All compounds were from Sigma-Aldrich.
For all lifespans and unless indicated differently in Supplementary Table 1, survival analyses were performed by the following method: Eggs were prepared from bleaching adults to remove all microbes, and then placed onto plates containing aroD mutant bacteria. Animals were raised at 15° C. until adulthood due to the temperature sensitivity of mutant phenotypes. Gravid adulthoods were used to lay eggs onto fresh aroD mutant plates. At L3/L4 these animals were transferred to 25° C. and larvae of equivalent stage were put onto at least 5 plates of 25 worms for each condition. Animals were transferred to fresh plates after 7 and 14 days and scored for survival every 2-3 days. Lifespan data was analysed by JMP statistical software (SAS). Where relevant, statistical significance was determined using the Log-Rank and Wilcoxon tests of fitting to the Kaplan-Meier survival model.

E. coli [2] = assay: HPLC/MS folate levels in bacteria; type: cell-based; conditions: SMX-treated OP50 bacteria, duplicate experiments, FIG. 9B
Excerpt: Both the aroD mutation and treatment with SMX inhibit folate synthesis in bacteria. […] This folate species is approximately three fold less abundant in the aroD mutant compared to the control strain (in duplicate experiments, FIG. 9A) and at least 10 times less abundant in the SMX-treated OP50 bacteria compared to the untreated control (in duplicate experiments, FIG. 9B).

C. elegans [3] = assay: HPLC/MS folate levels in worms; type: in vivo; conditions: worms raised on OP50 bacteria treated with SMX, duplicate experiments, FIG. 9D
Excerpt: Similar techniques were used to quantify levels of folates in worms, although proteinase K digestion of the worms was used to get a good extraction of folates. The most abundant folate species in C. elegans using this method of detection was 5-methyl tetrahydrofolate pentaglutamate. Worms raised on aroD bacteria had 25 to 30% less of this folate species than worms on the control bacteria (in duplicate experiments, FIG. 9C). Worms raised OP50 bacteria treated with SMX had approximately 75% less folate than worms raised on the control bacteria (in duplicate experiments, FIG. 9D).

E. coli [4] = assay: Effect on E. coli growth (absorbance, relative cell numbers); type: cell-based
Protocol: The inventors investigated the effect of SMX on E. coli growth. Under the conditions that caused an increase in C. elegans lifespan, they scraped the E. coli from the agar plates used to culture worms after two days of growth and used absorbance to estimate relative cell numbers. 128 μg/ml SMX caused a mean effect of reducing E. coli numbers by approx 11% (+/−5%, standard error, n=4). There was no effect on growth in liquid culture with the same nutrient conditions as used for lifespan analysis (FIG. 10).

yeast = conditions: cited from earlier work
worms = conditions: cited from earlier work
flies = conditions: cited from earlier work
one species of fish = conditions: cited from earlier work

SMILES: CC(C)(N)C(=O)N[C@H](COCc1ccccc1)C(=O)N1CCC2(CC1)CN(S(C)(=O)=O)c1ccccc12 [MK-677]
- muscle mass lost due to ageing restored (humans aged 60 to 81): 20%

SMILES: O=C(O)C1=C[C@@H](O)[C@@H](O)[C@H](O)C1 [shikimic acid]
- effect of media supplementation on C. elegans lifespan on aroD mutant bacteria (C. elegans [1]): revert to normal

SMILES: Cc1cc(NS(=O)(=O)c2ccc(N)cc2)no1 [SMX, sulfamethoxazole]
- increase in C. elegans lifespan (C. elegans [1]; 16 μg/ml SMX treatment of the bacteria): around 24%
- increase in C. elegans lifespan (C. elegans [1]; 64 μg/ml SMX, not significantly different to 16 μg/ml): 27%
- increase in C. elegans lifespan (C. elegans [1]; 128 μg/ml SMX, significantly different to 16 μg/ml (p<0.05)): 33%
- effect on C. elegans lifespan (C. elegans [1]; inhibition of the bacterial folate pathway, FIG. 6): lifespan can be increased
- formyl tetrahydrofolate triglutamate abundance, decrease vs untreated control (E. coli [2]): at least 10 times
- less folate (5-methyl tetrahydrofolate pentaglutamate) in worms vs worms on control bacteria (C. elegans [3]): approximately 75%
- reduction of E. coli numbers (E. coli [4]; 128 μg/ml SMX, agar plates, two days of growth, absorbance, +/−5% standard error, n=4): approx 11%
- effect on E. coli growth in liquid culture (E. coli [4]; same nutrient conditions as lifespan analysis, FIG. 10): no effect

SMILES: Nc1ccc(C(=O)O)cc1 [PABA, para-aminobenzoic acid]
- effect of supplementation on extended lifespan of C. elegans on ubiG mutant bacteria (C. elegans [1]): no effect
- effect of supplementation on lifespan of C. elegans on control HT115(DE3) strain (C. elegans [1]): no effect
- effect of media supplementation on C. elegans lifespan on aroD mutant bacteria (C. elegans [1]): reversed the lifespan increase completely

SMILES: N[C@@H](Cc1c[nH]c2ccccc12)C(=O)O [tryptophan]
- effect of media supplementation on C. elegans lifespan on aroD mutant bacteria (C. elegans [1]): small negative effect

SMILES: Oc1ccc(C=Cc2cc(O)cc(O)c2)cc1 [resveratrol]
- extension of lifespan (yeast): up to 60%
- extension of lifespan (worms): up to 30%
- extension of lifespan (flies): up to 30%
- extension of lifespan (one species of fish): ~60%

SMILES: Nc1nc2ncc(CNc3ccc(C(=O)N[C@@H](CCC(=O)O)C(=O)O)cc3)nc2c(=O)[nH]1 [folate, folic acid]
- effect of supplementation on extended lifespan of C. elegans on ubiG mutant bacteria (C. elegans [1]): no effect
- effect of adding folic acid to SMX plates on C. elegans lifespan (C. elegans [1]; SMX plates, FIG. 8): reverses the effect of SMX
- effect of supplementation on lifespan of C. elegans on control HT115(DE3) strain (C. elegans [1]): no effect
- effect of folate supplementation on C. elegans lifespan on aroD mutant (C. elegans [1]; doubled folate concentration (0.58 mM, 2× folate) vs 1× folate, difference not statistically significant): slightly shorter
- effect of folate supplementation on C. elegans lifespan extension on aroD mutant (C. elegans [1]; same molar concentration as PABA (0.29 mM, 1× folate)): reduced the C. elegans lifespan extension substantially but not completely
